Literature values in patent US7815928B2, “Device for local administration of solid or semi-solid formulations and delayed-release formulations for proposal parenteral administration and preparation process” (Societe de Conseils de Recherches et d'Applications …, priority 1996, dated 2010).

Test system: smooth muscle cells
Conditions: after endothelial damage

Substance: heparin
- proliferation of smooth muscle cells: inhibits the proliferation
